# Data: patent publication US20140349948A1, “Treatment of Chronic Constipation” (Forest Laboratories Holdings Limited, priority 2009, published 2014)
# Marks after values point to notes of the source that are not given here. Residues, ends and D or L forms follow the SMILES beside them.
# What was measured:
# [1] = system: patients meeting modified Rome II criteria for chronic constipation; experiment: Chronic Constipation Trial 1, 12-week treatment period; format: in vivo, human; conditions: for Straining, Week 1 Mean Change from Baseline / Abdominal discomfort, Week 1 Mean Change from Baseline / Bloating, Week 1 Mean Change from Baseline / Constipation severity, Week 1 Mean Change from Baseline: 5-point scale: 1 = none; for Straining, Week 1 Mean Change from Baseline: 5 = an extreme amount; for Abdominal discomfort, Week 1 Mean Change from Baseline / Bloating, Week 1 Mean Change from Baseline / Constipation severity, Week 1 Mean Change from Baseline: 5 = very severe; for Stool Consistency, Week 1 Mean Change from Baseline: 7-point scale (BSFS)
# Description: Linaclotide Capsules from Example 4 were administered in multicenter, randomized, double-blind, placebo-controlled trials.
# Trial 1 was conducted in 630 patients meeting modified Rome II criteria for chronic constipation. The trial included a two-week pretreatment baseline period and a 12-week treatment period. A diagram of the study design for Trial 2 is given in FIG. 1, which is substantially similar to Trial 1 except for the addition of a Randomized Withdrawal period in Trial 2 as described below.
# The Pretreatment Period is defined as the 14 to 21 calendar days immediately before starting the trial during which where patients provided information related to their daily bowel habits, daily assessment of the symptom severity, constipation severity, and use of other medicines, laxatives, suppositories, and/or enemas. Patients who satisfy the necessary criteria were entered into the Treatment Period. During the two-week pretreatment period, 72 percent of patients in Trial 1 had no CSBMs. A CSBM is an bowel movement that occurs in the absence of laxative, enema, or suppository usage within the preceding 24 hours that is accompanied by the patient self-reporting a feeling of complete emptying of the bowel.
# The Treatment Period began with randomization and lasted for 12 weeks. Patients were randomized to treatment with 133 μg linaclotide, 266 μg linaclotide, or placebo (1:1:1), taken once daily in the morning. Patients continued to provide their daily assessments such as their daily bowel habit assessments and daily patient symptom severity assessments.
# [2] = system: patients with chronic constipation; experiment: Trial 2 four-week Randomized Withdrawal Period; format: in vivo, human; parameters: Straining, Change From Baseline, Mean / Abdominal Discomfort, Change From Baseline, Mean / Bloating, Change From Baseline, Mean / Constipation Severity, Change From Baseline, Mean / Global Relief of Constipation Symptoms, Change From Baseline, Mean: scale not given here; conditions: RW Period; 133 μg/133 μg (n = 90)
# Description: Trial 2 was conducted in 642 patients and was identical to Trial 1 except that Trial 2 also included a four-week Randomized Withdrawal Period, defined below. During the two-week pretreatment (baseline) period, 68 percent of patients in Trial 2 had no CSBMs.
# The Randomized Withdrawal (RW) Period is defined as the 4 weeks immediately following the Treatment Period. The beginning of the RW Period coincides with the end of the Treatment Period. Patients who were randomized to linaclotide in the Treatment Period and complete the 12 weeks of the Treatment Period were randomized to treatment with linaclotide or placebo in the RW Period. Patients who were randomized to placebo in the Treatment Period and complete the 12 weeks of the Treatment Period received 133 μg or 266 μg linaclotide in the RW Period.
# [3] = Trial 1, 133 μg (p≦0.0001) and 266 μg (p≦0.0001)
# [4] = Trial 1, 133 μg (p≦0.001) and 266 μg (p≦0.0001)
smiles,measurement,setting,value
"C[C@@H]1NC(=O)[C@@H]2CCCN2C(=O)[C@H](CC(N)=O)NC(=O)[C@@H]2CSSC[C@H](N)C(=O)N[C@H]3CSSC[C@H](NC1=O)C(=O)N[C@@H]([C@@H](C)O)C(=O)NCC(=O)N[C@H](C(=O)N[C@@H](Cc1ccc(O)cc1)C(=O)O)CSSC[C@H](NC(=O)[C@H](Cc1ccc(O)cc1)NC(=O)[C@H](CCC(=O)O)NC3=O)C(=O)N2 [Linaclotide, Cys1 Cys2 Glu3 Tyr4 Cys5 Cys6 Asn7 Pro8 Ala9 Cys10 Thr11 Gly12 Cys13 Tyr14] (HELM PEPTIDE1{C.C.E.Y.C.C.N.P.A.C.T.G.C.Y}$PEPTIDE1,PEPTIDE1,1:R3-6:R3|PEPTIDE1,PEPTIDE1,2:R3-10:R3|PEPTIDE1,PEPTIDE1,5:R3-13:R3$$$V2.0)","CSBM rate, Week 1 Mean Change from Baseline","[1]; 133 μg, Trial 1 (n = 213)",1.94***
same,"SBM rate, Week 1 Mean Change from Baseline","[1]; 133 μg, Trial 1 (n = 213)",4.09***
same,"Straining, Week 1 Mean Change from Baseline","[1]; 133 μg, Trial 1 (n = 213)",−1.04***
same,"Abdominal discomfort, Week 1 Mean Change from Baseline","[1]; 133 μg, Trial 1 (n = 213)",−0.27**
same,"Bloating, Week 1 Mean Change from Baseline","[1]; 133 μg, Trial 1 (n = 213)",−0.31*
same,"Constipation severity, Week 1 Mean Change from Baseline","[1]; 133 μg, Trial 1 (n = 213)",−0.78***
same,"Stool Consistency, Week 1 Mean Change from Baseline","[1]; 133 μg, Trial 1 (n = 213)",1.79***
same,"CSBM rate, Week 1 Mean Change from Baseline","[1]; 266 μg, Trial 1 (n = 202)",2.63***
same,"SBM rate, Week 1 Mean Change from Baseline","[1]; 266 μg, Trial 1 (n = 202)",4.09***
same,"Straining, Week 1 Mean Change from Baseline","[1]; 266 μg, Trial 1 (n = 202)",−1.10***
same,"Abdominal discomfort, Week 1 Mean Change from Baseline","[1]; 266 μg, Trial 1 (n = 202)",−0.28***
same,"Bloating, Week 1 Mean Change from Baseline","[1]; 266 μg, Trial 1 (n = 202)",−0.36***
same,"Constipation severity, Week 1 Mean Change from Baseline","[1]; 266 μg, Trial 1 (n = 202)",−0.81***
same,"Stool Consistency, Week 1 Mean Change from Baseline","[1]; 266 μg, Trial 1 (n = 202)",1.96***
same,12-week CSBM overall responder rate,"[1]; Trial 1, 133 μg",16.0%
same,increase in average weekly CSBMs from baseline,"[1]; Trial 1, 133 μg",2.0
same,increase in average weekly SBMs from baseline,"[1]; Trial 1, 133 μg",3.4
same,numerical increase of 12-week CSBM overall responder rate as compared to placebo,"[1]; Trial 1, 133 μg",2.6 fold
same,patients reporting at least one CSBM within 24 hours of treatment,"[1]; Trial 1, 133 μg",28.2%
same,patients reporting at least one SBM within 24 hours of treatment,"[1]; Trial 1, 133 μg",64.3%
same,patients with increase of ≧1 from baseline in weekly CSBMs in at least nine out of 12 weeks,"[1]; Trial 1, 133 μg",31.0%
same,patients with increase of ≧1 from baseline in weekly CSBMs in at least six out of 12 weeks,"[1]; Trial 1, 133 μg",47.4%
same,patients with ≧3 weekly CSBMs in at least nine out of 12 weeks,"[1]; Trial 1, 133 μg",16.0%
same,12-week CSBM overall responder rate,"[1]; Trial 1, 266 μg",21.3%
same,increase in average weekly CSBMs from baseline,"[1]; Trial 1, 266 μg",2.7
same,increase in average weekly SBMs from baseline,"[1]; Trial 1, 266 μg",3.7
same,numerical increase of 12-week CSBM overall responder rate as compared to placebo,"[1]; Trial 1, 266 μg",3.5 fold
same,patients reporting at least one CSBM within 24 hours of treatment,"[1]; Trial 1, 266 μg",29.7%
same,patients reporting at least one SBM within 24 hours of treatment,"[1]; Trial 1, 266 μg",60.4%
same,patients with increase of ≧1 from baseline in weekly CSBMs in at least nine out of 12 weeks,"[1]; Trial 1, 266 μg",40.1%
same,patients with increase of ≧1 from baseline in weekly CSBMs in at least six out of 12 weeks,"[1]; Trial 1, 266 μg",51.0%
same,patients with ≧3 weekly CSBMs in at least nine out of 12 weeks,"[1]; Trial 1, 266 μg",21.8%
same,"PAC-QOL overall assessments, 12 week overall mean change versus placebo",[1]; [3],statistically significant improvements
same,PAC-QOL subscale score Physical Discomfort versus placebo,[1]; [3],statistically significant improvements
same,PAC-QOL subscale score Satisfaction versus placebo,[1]; [3],statistically significant improvements
same,PAC-QOL subscale score Worries/Concerns versus placebo,[1]; [3],statistically significant improvements
same,"severity of straining score, 12 week overall mean change versus placebo",[1]; [3],statistically significant improvements
same,"stool consistency score, 12 week overall mean change versus placebo",[1]; [3],statistically significant improvements
same,"abdominal discomfort score, 12 week overall mean change versus placebo",[1]; [4],statistically significant improvements
same,"bloating score, 12 week overall mean change versus placebo",[1]; [4],statistically significant improvements
same,"constipation severity score, 12 week overall mean change versus placebo",[1]; [4],statistically significant improvements
same,"Abdominal Discomfort, Change From Baseline, Mean",[2],−0.5
same,"Bloating, Change From Baseline, Mean",[2],−0.4
same,"Constipation Severity, Change From Baseline, Mean",[2],−0.9
